Columns and labels:
[1] = target: T1, SIK2 (Homo sapiens, UniProt Q9H0K1); test: ADP-Glo kinase assay, SIK2; type: biochemical
T1 construct: purchased ThermoFisher Scientific PV4792
Method in brief: (§1)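 Steps: add enzyme–substrate mixture; start with diluted ATP; incubate RT 120 min; add ADP-Glo Reagent to terminate and remove unconsumed ATP, 40 min; add detection reagent, 30 min; read luminescence. DMSO at 1% and staurosporine at 10 μM (final) define assay windows.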

[2] = target: T2, SIK1 (Homo sapiens, UniProt P57059); test: ADP-Glo kinase assay, SIK1; type: biochemical
T2 construct: purchased Carna Biosciences 02-131
T2 sequence (P57059 whole entry): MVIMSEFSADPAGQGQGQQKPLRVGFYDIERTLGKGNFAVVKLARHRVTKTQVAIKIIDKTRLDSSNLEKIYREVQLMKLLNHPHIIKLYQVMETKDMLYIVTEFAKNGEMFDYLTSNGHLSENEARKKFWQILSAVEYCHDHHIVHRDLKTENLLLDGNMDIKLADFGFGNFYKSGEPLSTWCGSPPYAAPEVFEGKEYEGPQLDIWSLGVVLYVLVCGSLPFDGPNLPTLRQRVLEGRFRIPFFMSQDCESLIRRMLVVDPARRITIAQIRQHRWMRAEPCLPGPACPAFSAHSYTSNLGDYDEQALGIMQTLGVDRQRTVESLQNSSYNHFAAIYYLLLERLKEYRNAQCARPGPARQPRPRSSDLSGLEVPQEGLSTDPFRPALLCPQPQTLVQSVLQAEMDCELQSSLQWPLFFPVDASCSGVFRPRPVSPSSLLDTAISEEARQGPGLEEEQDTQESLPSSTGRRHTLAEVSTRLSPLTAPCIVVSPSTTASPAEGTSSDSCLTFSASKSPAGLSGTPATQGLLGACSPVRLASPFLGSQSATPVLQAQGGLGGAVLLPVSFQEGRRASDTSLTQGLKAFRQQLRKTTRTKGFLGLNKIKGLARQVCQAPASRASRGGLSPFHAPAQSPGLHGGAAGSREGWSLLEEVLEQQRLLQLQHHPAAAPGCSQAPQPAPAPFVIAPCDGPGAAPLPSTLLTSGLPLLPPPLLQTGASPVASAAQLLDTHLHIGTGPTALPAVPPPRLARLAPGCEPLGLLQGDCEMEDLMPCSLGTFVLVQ
Method in brief: as §1

[3] = target: T3, SIK3 (Homo sapiens, UniProt Q9Y2K2); test: ADP-Glo kinase assay, SIK3; type: biochemical
T3 construct: purchased SignalChem S12-11G-100
T3 sequence (Q9Y2K2 59-365 limits assumed): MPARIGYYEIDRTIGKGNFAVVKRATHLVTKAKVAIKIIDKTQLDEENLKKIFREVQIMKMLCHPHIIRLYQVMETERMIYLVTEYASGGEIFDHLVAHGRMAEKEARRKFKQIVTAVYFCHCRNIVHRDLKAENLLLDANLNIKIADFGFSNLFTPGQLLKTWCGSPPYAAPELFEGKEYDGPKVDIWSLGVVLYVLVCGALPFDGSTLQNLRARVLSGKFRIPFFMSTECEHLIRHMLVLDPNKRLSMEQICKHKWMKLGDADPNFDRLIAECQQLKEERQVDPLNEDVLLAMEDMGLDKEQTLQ
Method in brief: as §1

[4] = tested on: LPS-induced TNFα in monocytes; test: Monocytes assay: LPS-triggered TNFα (ELISA); type: cell-based, human; conditions: Homo sapiens, Monocyte, LPS-triggered TNFα inhibition
Method in brief: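 TNFα secretion was triggered with 200 ng/mL LPS for 4 h in human blood CD14+ monocytes after 1 h compound pretreatment at 37 °C, with 0.2% final DMSO. Supernatants were analysed by streptavidin-HRP/luminol ELISA, and percentage inhibition at each concentration was derived relative to control wells.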

T1 sequence (Q9H0K1 whole entry): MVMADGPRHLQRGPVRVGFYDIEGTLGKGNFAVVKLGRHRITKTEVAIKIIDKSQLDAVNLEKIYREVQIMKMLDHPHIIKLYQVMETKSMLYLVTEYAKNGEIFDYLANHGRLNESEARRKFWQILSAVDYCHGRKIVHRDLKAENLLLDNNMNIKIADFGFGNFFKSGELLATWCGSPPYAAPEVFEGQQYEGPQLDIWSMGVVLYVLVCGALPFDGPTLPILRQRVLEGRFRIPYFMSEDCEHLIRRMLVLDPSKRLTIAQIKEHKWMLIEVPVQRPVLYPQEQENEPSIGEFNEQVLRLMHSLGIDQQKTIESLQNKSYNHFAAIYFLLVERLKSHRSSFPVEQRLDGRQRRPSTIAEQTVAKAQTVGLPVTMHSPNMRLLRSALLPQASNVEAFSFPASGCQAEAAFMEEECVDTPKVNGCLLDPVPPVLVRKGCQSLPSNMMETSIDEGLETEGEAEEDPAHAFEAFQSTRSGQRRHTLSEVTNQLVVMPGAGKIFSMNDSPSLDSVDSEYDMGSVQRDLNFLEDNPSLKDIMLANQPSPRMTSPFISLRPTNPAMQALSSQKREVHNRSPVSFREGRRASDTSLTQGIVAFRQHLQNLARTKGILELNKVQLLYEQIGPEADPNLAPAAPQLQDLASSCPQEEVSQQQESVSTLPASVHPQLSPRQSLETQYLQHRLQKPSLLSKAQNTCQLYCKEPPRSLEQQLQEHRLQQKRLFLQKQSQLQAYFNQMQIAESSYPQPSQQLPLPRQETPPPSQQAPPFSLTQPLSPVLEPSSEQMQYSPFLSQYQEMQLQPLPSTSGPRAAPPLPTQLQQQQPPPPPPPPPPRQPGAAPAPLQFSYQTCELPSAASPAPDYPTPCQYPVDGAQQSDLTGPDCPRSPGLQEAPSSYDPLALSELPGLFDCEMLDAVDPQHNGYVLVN

Compound | IC50 [1] [nM] | IC50 [2] [nM] | IC50 [3] [nM] | EC50 [4] [nM]
COc1cc(-c2cnc3cc(C(C)(C)C#N)ccn23)cc(OC(F)F)c1C(=O)N1CC(F)C1 [Cpd 96, 2-[3-[3-(difluoromethoxy)-4-(3-fluoroazetidine-1-carbonyl)-5-methoxy-phenyl]imidazo[1,2-a]pyridin-7-yl]-2-methyl-propanenitrile] | > 500 | > 500 | 0.01 to 10 | 100 to 1000
COc1cc(-c2cnc3cc(C(C)(C)N)ccn23)cc(OC(F)F)c1C(=O)NC1CC1 [Cpd 106, 4-[7-(1-amino-1-methyl-ethyl)imidazo[1,2-a]pyridin-3-yl]-N-cyclopropyl-2-(difluoromethoxy)-6-methoxy-benzamide] | > 500 | > 500 | 0.01 to 10 | 100 to 1000
COc1cc(-c2cnc3cc(C4(C#N)CCOCC4)ccn23)cc(OC)c1C(=O)NCC(F)(F)F [Cpd 107, 4-[7-(4-cyanotetrahydropyran-4-yl)imidazo[1,2-a]pyridin-3-yl]-2,6-dimethoxy-N-(2,2,2-trifluoroethyl)benzamide] | > 500 | > 500 | 0.01 to 10 | 100 to 1000
COC(=O)C1(c2ccn3c(-c4cc(OC)c(C(=O)NC5CC5)c(OC(F)F)c4)cnc3c2)CC1 [Cpd 113, methyl 1-[3-[4-(cyclopropylcarbamoyl)-3-(difluoromethoxy)-5-methoxy-phenyl]imidazo[1,2-a]pyridin-7-yl]cyclopropanecarboxylate] | > 500 | > 500 | 0.01 to 10 | 100 to 1000
COc1cc(-c2cnc3cc(C4(C#N)CCOCC4)ccn23)cc(OC(F)F)c1C(=O)NC1CC1 [Cpd 116, 4-[7-(4-cyanotetrahydropyran-4-yl)imidazo[1,2-a]pyridin-3-yl]-N-cyclopropyl-2-(difluoromethoxy)-6-methoxy-benzamide] | > 500 | > 500 | 0.01 to 10 | 100 to 1000
COc1cc(-c2cnc3cc(C4(C#N)COC4)ccn23)cc(OC(F)F)c1C(=O)NC1CC1 [Cpd 117, 4-[7-(3-cyanooxetan-3-yl)imidazo[1,2-a]pyridin-3-yl]-N-cyclopropyl-2-(difluoromethoxy)-6-methoxy-benzamide] | > 500 | > 500 | 0.01 to 10 | 100 to 1000
COc1cc(-c2cnc3cc(C4(C#N)CCOC4)ccn23)cc(OC(F)F)c1C(=O)NC1CC1 (stereo not shown) [Cpd 123, 4-[7-(3-cyanotetrahydrofuran-3-yl)imidazo[1,2-a]pyridin-3-yl]-N-cyclopropyl-2-(difluoromethoxy)-6-methoxy-benzamide] | > 500 | > 500 | 10 to 100 | 100 to 1000
CCOC(C)(C)c1ccn2c(-c3cc(OC)c(C(=O)NC4CC4)c(OC(F)F)c3)cnc2c1 [Cpd 128, N-cyclopropyl-2-(difluoromethoxy)-4-[7-(1-ethoxy-1-methyl-ethyl)imidazo[1,2-a]pyridin-3-yl]-6-methoxy-benzamide] | > 500 | > 500 | 10 to 100 | 100 to 1000
COc1cc(-c2cnc3cc(C(C)(O)C(F)(F)F)ccn23)cc(OC(F)F)c1C(=O)NC1CC1 (stereo not shown) [Cpd 129, N-cyclopropyl-2-(difluoromethoxy)-6-methoxy-4-[7-(2,2,2-trifluoro-1-hydroxy-1-methyl-ethyl)imidazo[1,2-a]pyridin-3-yl]benzamide] | > 500 | > 500 | 10 to 100 | 100 to 1000
COc1cc(-c2cnc3cc(C4(C#N)COC4)ccn23)cc(OC(F)F)c1C(=O)N[C@@H]1C[C@@H]1F [Cpd 130, 4-[7-(3-cyanooxetan-3-yl)imidazo[1,2-a]pyridin-3-yl]-2-(difluoromethoxy)-N-[(1R,2S)-2-fluorocyclopropyl]-6-methoxy-benzamide] | > 500 | > 500 | 0.01 to 10 | 100 to 1000
COc1cc(-c2cnc3cc(C(F)(F)CO)ccn23)cc(OC(F)F)c1C(=O)NC1CC1 [Cpd 136, N-cyclopropyl-4-[7-(1,1-difluoro-2-hydroxy-ethyl)imidazo[1,2-a]pyridin-3-yl]-2-(difluoromethoxy)-6-methoxy-benzamide] | 100 to 500 | > 500 | 0.01 to 10 | 100 to 1000
CCC(C)(O)c1ccn2c(-c3cc(OC)c(C(=O)NC4CC4)c(OC(F)F)c3)cnc2c1 (stereo not shown) [Cpd 137, N-cyclopropyl-2-(difluoromethoxy)-4-[7-(1-hydroxy-1-methyl-propyl)imidazo[1,2-a]pyridin-3-yl]-6-methoxy-benzamide] | > 500 | > 500 | 10 to 100 | 100 to 1000
COc1cc(-c2cnc3cc(C(C)(O)C4CC4)ccn23)cc(OC(F)F)c1C(=O)NC1CC1 (stereo not shown) [Cpd 138, N-cyclopropyl-4-[7-(1-cyclopropyl-1-hydroxy-ethyl)imidazo[1,2-a]pyridin-3-yl]-2-(difluoromethoxy)-6-methoxy-benzamide] | > 500 | > 500 | 10 to 100 | 100 to 1000
COc1cc(-c2cnc3cc(C(C)O)ccn23)cc(OC(F)F)c1C(=O)NC1CC1 (stereo not shown) [Cpd 140, N-cyclopropyl-2-(difluoromethoxy)-4-[7-(1-hydroxyethyl)imidazo[1,2-a]pyridin-3-yl]-6-methoxy-benzamide] | 100 to 500 | 100 to 500 | 10 to 100 | 100 to 1000
COc1cc(-c2cnc3cc(C(C)N4CCCCC4)ccn23)cc(OC(F)F)c1C(=O)NC1CC1 (stereo not shown) [Cpd 146, N-cyclopropyl-2-(difluoromethoxy)-6-methoxy-4-[7-[1-(1-piperidyl)ethyl]imidazo[1,2-a]pyridin-3-yl]benzamide] | > 500 | > 500 | 10 to 100 | 1000 to 5000
COc1cc(-c2cnc3cc(C(C)(C)CO)ccn23)cc(OC(F)F)c1C(=O)NC1CC1 [Cpd 150, N-cyclopropyl-2-(difluoromethoxy)-4-[7-(2-hydroxy-1,1-dimethyl-ethyl)imidazo[1,2-a]pyridin-3-yl]-6-methoxy-benzamide] | > 500 | > 500 | 0.01 to 10 | 100 to 1000
COc1cc(-c2cnc3cc(C(C)(C)CN4CCOCC4)ccn23)cc(OC(F)F)c1C(=O)NC1CC1 [Cpd 160, N-cyclopropyl-2-(difluoromethoxy)-4-[7-(1,1-dimethyl-2-morpholino-ethyl)imidazo[1,2-a]pyridin-3-yl]-6-methoxy-benzamide] | > 500 | > 500 | 10 to 100 | 100 to 1000
COc1cc(-c2cnc3cc(C4CCOCC4)c(F)cn23)cc(OC(F)F)c1C(=O)NC1CC1 [Cpd 166, N-cyclopropyl-2-(difluoromethoxy)-4-(6-fluoro-7-tetrahydropyran-4-yl-imidazo[1,2-a]pyridin-3-yl)-6-methoxy-benzamide] | 100 to 500 | > 500 | 0.01 to 10 | 100 to 1000
COc1cc(-c2cnc3cc(C4CCC4)c(F)cn23)cc(OC(F)F)c1C(=O)NC1CC1 [Cpd 168, 4-(7-cyclobutyl-6-fluoro-imidazo[1,2-a]pyridin-3-yl)-N-cyclopropyl-2-(difluoromethoxy)-6-methoxy-benzamide] | 10 to 100 | 100 to 500 | 0.01 to 10 | 100 to 1000
COc1cc(-c2cnc3cc(C4(O)CCOCC4)ccn23)cc(OC(F)F)c1C(=O)NC1CC1 [Cpd 170, N-cyclopropyl-2-(difluoromethoxy)-4-[7-(4-hydroxytetrahydropyran-4-yl)imidazo[1,2-a]pyridin-3-yl]-6-methoxy-benzamide] | > 500 | > 500 | 10 to 100 | 1000 to 5000
COc1cc(-c2cnc3cc(C4CCCN4C)ccn23)cc(OC(F)F)c1C(=O)NC1CC1 (stereo not shown) [Cpd 171, N-cyclopropyl-2-(difluoromethoxy)-6-methoxy-4-[7-(1-methylpyrrolidin-2-yl)imidazo[1,2-a]pyridin-3-yl]benzamide] | > 500 | > 500 | 10 to 100 | 1000 to 5000
COc1cc(-c2cnc3cc(C(C)(C)C(C)O)ccn23)cc(OC(F)F)c1C(=O)NC1CC1 (stereo not shown) [Cpd 172, N-cyclopropyl-2-(difluoromethoxy)-4-[7-(2-hydroxy-1,1-dimethyl-propyl)imidazo[1,2-a]pyridin-3-yl]-6-methoxy-benzamide] | > 500 | > 500 | 10 to 100 | 100 to 1000
COc1cc(-c2cnc3cc(C4(O)CCC4)ccn23)cc(OC(F)F)c1C(=O)NC1CC1 [Cpd 173, N-cyclopropyl-2-(difluoromethoxy)-4-[7-(1-hydroxycyclobutyl)imidazo[1,2-a]pyridin-3-yl]-6-methoxy-benzamide] | 100 to 500 | > 500 | 10 to 100 | 100 to 1000
COc1cc(-c2cnc3cc(C4COC4)ccn23)cc(OC(F)F)c1C(=O)NC1CC1 [Cpd 174, N-cyclopropyl-2-(difluoromethoxy)-6-methoxy-4-[7-(oxetan-3-yl)imidazo[1,2-a]pyridin-3-yl]benzamide] | 10 to 100 | 100 to 500 | 0.01 to 10 | 100 to 1000
COc1cc(-c2cnc3cc(C(O)CC#N)ccn23)cc(OC(F)F)c1C(=O)NC1CC1 (stereo not shown) [Cpd 175, 4-[7-(2-cyano-1-hydroxy-ethyl)imidazo[1,2-a]pyridin-3-yl]-N-cyclopropyl-2-(difluoromethoxy)-6-methoxy-benzamide] | 100 to 500 | > 500 | 10 to 100 | 1000 to 5000

Source: patent US12391679B2, “Benzamide-substituted bicyclic imidazo- and pyrazolo-fused -pyridine, -pyrimide, and -pyridazine compounds for treatment of inflammatory diseases” (ONCO3R Therapeutics BV, priority 2019, dated 2025)
